Assay results as given in publication PMC12369479 (Journal of Experimental Botany, 2025).
Values joined by “and” are separate entries in the source; they are usually repeats but may differ in a detail not shown here. Identical values can stand only once. Like-named read-outs stand apart in the source and are kept apart here.

What was measured:
[1] = molecular target: T1, ZmADK2 (Zea mays, UniProt B4FFH8, T4S); experiment: ADK activity, coupled reaction with PK and LDH; format: biochemical; conditions: ZmADK2, 10 mM ATP, pH 7.5, 30 °C; for Specific activity: 100 µM substrate
Protocol: (§1) Substrate analogs were purchased from Sigma-Aldrich (www.sigmaaldrich.com). The ADK activity was measured spectrophotometrically on an Agilent 8453 UV-Vis spectrophotometer (www.agilent.com) at 30 °C using a coupled reaction with pyruvate kinase (PK) and lactate dehydrogenase (LDH) (www.sigmaaldrich.com) ([Blondin et al., 1994]). In this assay, PK converts ADP produced by ADK and phosphoenolpyruvate (PEP) to pyruvate. Subsequently, LDH then converts pyruvate to lactate using the coenzyme NADH, with the conversion monitored at 340 nm. The reaction was conducted in 50 mM Tris–HCl buffer at pH 7.5, containing 50 mM KCl, 6 mM MgCl2, 300 µM PEP, 200 µM NADH, 10 mM ATP, 2 U of PK, and 2.5 U of LDH, using various nucleoside substrates. Kinetic constants were determined using GraphPad Prism 8.0 software (www.graphpad.com). Each measurement was performed six times using repetitive purified enzymes. The activities of all five ADKs were also measured by HPLC ([Moffatt et al., 1991]). The reaction mixture comprised 50 mM Tris–HCl pH 7.5, 5 mM MgCl2, 0.5 mM DTT, 30 mM NaF, 5 mM ATP, 40 µM substrate, and 2–150 ng of purified ADK, depending on the isoform. The reaction was incubated at 30 °C for up to 1 h. […] Similarly, the conversion of cytokinin ribosides to monophosphates was followed on a LiChrosphere 60 RP-Select B (5 µm) LiChroCART column 125-4 column equilibrated with 10 mM triethylamine at pH 5.4 plus 10% methanol, and stepwise eluted with 100% methanol.

[2] = molecular target: ZmADK3 (Zea mays, UniProt A0A1D6E5Z5); experiment: ADK activity, coupled reaction with PK and LDH; format: biochemical; conditions: ZmADK3; 100 µM substrate; 10 mM ATP; pH 7.5; 30 °C
Protocol: Substrate analogs were purchased from Sigma-Aldrich (www.sigmaaldrich.com). […] In this assay, PK converts ADP produced by ADK and phosphoenolpyruvate (PEP) to pyruvate. Subsequently, LDH then converts pyruvate to lactate using the coenzyme NADH, with the conversion monitored at 340 nm. The reaction was conducted in 50 mM Tris–HCl buffer at pH 7.5, containing 50 mM KCl, 6 mM MgCl2, 300 µM PEP, 200 µM NADH, 10 mM ATP, 2 U of PK, and 2.5 U of LDH, using various nucleoside substrates. Kinetic constants were determined using GraphPad Prism 8.0 software (www.graphpad.com). Each measurement was performed six times using repetitive purified enzymes. […] The reaction mixture comprised 50 mM Tris–HCl pH 7.5, 5 mM MgCl2, 0.5 mM DTT, 30 mM NaF, 5 mM ATP, 40 µM substrate, and 2–150 ng of purified ADK, depending on the isoform. The reaction was incubated at 30 °C for up to 1 h.

[3] = molecular target: T2, PpADK1 (Physcomitrium patens, UniProt O49923); experiment: ADK activity, coupled reaction with PK and LDH; format: biochemical, Physcomitrella patens; conditions: 100 µM substrate, 10 mM ATP, pH 7.5, 30 °C
T2 construct: made in house; host or cells: E. coli T7 Express Iq
Protocol: as §1

[4] = molecular target: PpADK2 (Physcomitrium patens, UniProt A9RF27); experiment: ADK activity, coupled reaction with PK and LDH; conditions: 100 µM substrate, 10 mM ATP, pH 7.5, 30 °C
Protocol: as §1

[5] = molecular target: ZmADK1 (Zea mays, UniProt K7UH13); experiment: ADK activity, coupled reaction with PK and LDH; conditions: 100 µM substrate, 10 mM ATP, pH 7.5, 30 °C
Protocol: as §1

[6] = test system: rabbit ADK; design: method as in Miller et al., 1979a; conditions: ref Miller et al., 1979a; cited from earlier work
[7] = molecular target: T1, ZmADK2; experiment: Binding affinity by microscale thermophoresis (MST); conditions: for Kd: MST; for weaker affinity compared with Ado: ratio of KD values
Protocol: (§2) The microscale thermophoresis (MST) method was used to determine the binding affinity of various ribosides for ZmADK2 and PpADK1. Proteins were fluorescently labeled with RED-tris-NTA dye (www.nanotemper-technologies.com) using a 1:1 dye/protein molar ratio. The labeled protein was adjusted to 100–300 nM in 50 mM HEPES buffer pH 7.5, 1 mM MgCl2, and 0.2% Tween. Measurements were performed in premium capillaries on a Monolith NT.115 instrument at 30 °C with 5 s/30 s/5 s laser off/on/off times, respectively, with continuous sample fluorescence recording. Thermal stability was measured by nano-differential scanning fluorimetry on a Prometheus NT.48 instrument (www.nanotemper-technologies.com) in various buffers covering a pH (7.0–9.5) and temperature range (25–95 °C), with a heating rate of 1 °C min^–1, and using NT melting control software. Protein unfolding was measured by detecting the temperature-induced change in tryptophan fluorescence intensity at emission wavelengths of 330±5 nm and 350±5 nm. The melting temperature (Tm) was deduced from the maximum of the first derivative of the fluorescence ratios F350/F330.

[8] = molecular target: T2, PpADK1; experiment: as above; design: species or system Physcomitrella patens
Protocol: as §2

[9] = 50 mM HEPES pH 7.5, 1 mM MgCl2, first or only binding event, read-out: KD
[10] = KD, 50 mM HEPES pH 7.5, 1 mM MgCl2, first or only binding event
[11] = second binding event (ATP site), read-out: second (higher) KD value

T1 sequence (B4FFH8 1-342 T4S): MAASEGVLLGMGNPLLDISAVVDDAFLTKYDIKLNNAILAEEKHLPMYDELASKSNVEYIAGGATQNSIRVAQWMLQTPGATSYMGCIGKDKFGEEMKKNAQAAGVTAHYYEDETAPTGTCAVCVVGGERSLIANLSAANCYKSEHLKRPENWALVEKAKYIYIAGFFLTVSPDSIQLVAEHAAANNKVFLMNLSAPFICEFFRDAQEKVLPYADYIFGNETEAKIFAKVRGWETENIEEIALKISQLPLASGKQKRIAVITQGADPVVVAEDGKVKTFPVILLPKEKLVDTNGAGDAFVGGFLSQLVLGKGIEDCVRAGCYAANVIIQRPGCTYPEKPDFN
T2 sequence (O49923 whole entry): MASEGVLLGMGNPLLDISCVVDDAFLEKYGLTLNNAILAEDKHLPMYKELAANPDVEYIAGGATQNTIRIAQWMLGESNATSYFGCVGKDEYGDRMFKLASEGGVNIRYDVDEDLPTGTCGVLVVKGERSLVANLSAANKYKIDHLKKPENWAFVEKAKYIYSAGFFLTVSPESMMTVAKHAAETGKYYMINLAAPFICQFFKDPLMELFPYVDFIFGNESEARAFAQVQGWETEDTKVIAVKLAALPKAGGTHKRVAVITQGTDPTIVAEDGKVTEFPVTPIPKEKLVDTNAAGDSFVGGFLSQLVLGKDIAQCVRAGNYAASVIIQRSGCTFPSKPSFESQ
Chain of ZmADK1 (K7UH13 entry or part of it): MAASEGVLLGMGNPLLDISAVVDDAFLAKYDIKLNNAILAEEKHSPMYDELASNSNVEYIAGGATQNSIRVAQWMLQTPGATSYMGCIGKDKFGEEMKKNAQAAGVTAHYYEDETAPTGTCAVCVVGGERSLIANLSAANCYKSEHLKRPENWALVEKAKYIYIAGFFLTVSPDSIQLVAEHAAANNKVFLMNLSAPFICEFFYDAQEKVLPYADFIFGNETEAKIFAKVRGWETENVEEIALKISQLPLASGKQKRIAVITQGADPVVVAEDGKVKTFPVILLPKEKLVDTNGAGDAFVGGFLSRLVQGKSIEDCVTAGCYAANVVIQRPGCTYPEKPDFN
Chain of PpADK2 (A9RF27 entry or part of it): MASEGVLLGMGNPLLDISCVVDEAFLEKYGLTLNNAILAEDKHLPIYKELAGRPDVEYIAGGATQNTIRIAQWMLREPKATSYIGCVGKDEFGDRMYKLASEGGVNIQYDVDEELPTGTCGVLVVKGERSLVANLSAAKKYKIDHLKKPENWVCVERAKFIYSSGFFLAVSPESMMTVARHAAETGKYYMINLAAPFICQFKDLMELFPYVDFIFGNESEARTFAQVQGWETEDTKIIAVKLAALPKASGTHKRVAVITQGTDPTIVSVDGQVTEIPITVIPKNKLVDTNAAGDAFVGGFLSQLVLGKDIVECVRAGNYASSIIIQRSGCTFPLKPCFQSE
Chain of ZmADK3 (A0A1D6E5Z5 entry or part of it): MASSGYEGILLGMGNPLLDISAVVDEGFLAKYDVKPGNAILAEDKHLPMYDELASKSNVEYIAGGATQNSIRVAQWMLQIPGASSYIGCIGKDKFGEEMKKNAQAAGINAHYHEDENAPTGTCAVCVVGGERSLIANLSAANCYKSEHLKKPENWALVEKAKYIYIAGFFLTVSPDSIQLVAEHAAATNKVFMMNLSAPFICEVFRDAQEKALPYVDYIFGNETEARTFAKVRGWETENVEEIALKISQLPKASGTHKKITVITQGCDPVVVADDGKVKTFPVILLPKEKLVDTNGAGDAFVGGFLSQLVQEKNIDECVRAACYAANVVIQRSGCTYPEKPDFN

## C/C(=C\CNc1ncnc2c1ncn2[C@@H]1O[C@H](CO)[C@@H](O)[C@H]1O)CO (relative stereo) [tZR, trans-zeatin riboside]
[1]
  Specific activity: 3.8±0.4 nmol s^–1 mg^–1
[2]
  Specific activity: 2.7±0.4 nmol s^–1 mg^–1
[3]
  Specific activity: 0.74±0.06 nmol s^–1 mg^–1
[4]
  Specific activity: 0.83±0.08 nmol s^–1 mg^–1
[5]
  Specific activity: 2.7±0.3 nmol s^–1 mg^–1

## Nc1ncnc2c1ncn2C1CC(O)C(CO)O1 (stereo not shown) [2′-DeoxyAdo]
[1]
  Km: 506 ± 39 µM
  kcat: 0.46±0.02 s^–1
[1]; listed as 2′-deoxyAdo
  Km: ~500 µM
[6]
  Km: 575 µM
[7]; 50 mM HEPES pH 7.5, 1 mM MgCl2, first or only binding event, listed as 2′-deoxyAdo, read-out: KD
  Kd: ~500 µM
[7]; [9]
  Kd: 505 ± 94 µM
[7]
  weaker affinity compared with Ado: ~ 1200 fold

## Nc1ncnc2c1ncn2[C@@H]1O[C@H](CO)C[C@H]1O [3′-DeoxyAdo, cordycepin]
[6]
  Km: 254 µM
[7]; [10]
  Kd: 175 ± 9 µM

## Nc1ncnc2c1ccn2[C@@H]1O[C@H](CO)[C@@H](O)[C@H]1O [7-DeazaAdo, tubercidin]
[1]
  Km: 3.4 ± 0.4 µM
  kcat: 0.17±0.01 s^–1
[7]; [10]
  Kd: 2.2 ± 0.7 µM
[7]
  weaker affinity compared with Ado: ~ 5.5 fold

## Nc1ncnc2c1ncn2[C@@H]1O[C@H](COP(=O)(O)OP(=O)(O)O)[C@@H](O)[C@H]1O [ADP]
[7]; 50 mM HEPES pH 7.5, 1 mM MgCl2, read-out: KD
  Kd: 10300 ± 1200 µM

## Nc1ncnc2c1ncn2C1OC(COP(=O)(O)O)C(O)C1O (stereo not shown) [AMP]
[7]; [10]
  Kd: 247 ± 71 µM
[7]; second KD value, KD(2), second binding event (ATP site)
  Kd: ~8000 µM and 8300 µM
[7]; second KD value, second binding event (ATP site)
  Kd: 8300 ± 2070 µM
[8]; [9]
  Kd: 121 µM
[8]; [11]
  Kd: 8300 µM

## Nc1ncnc2c1ncn2[C@@H]1O[C@H](COP(=O)(O)OP(=O)(O)OP(=O)(O)OP(=O)(O)OP(=O)(O)OC[C@H]2O[C@@H](n3cnc4c(N)ncnc43)[C@H](O)[C@@H]2O)[C@@H](O)[C@H]1O [AP5A, diadenosine pentaphosphate]
[7]; [9]
  Kd: 14.5 ± 9.2 µM
[7]; second binding event (ATP site), read-out: second KD value
  Kd: 949 ± 46 µM
[8]; [9]
  Kd: 8.1 ± 1.1 µM
[8]; [11]
  Kd: 630 ± 120 µM

## Nc1ncnc2c1ncn2[C@@H]1O[C@H](CO)[C@@H](O)[C@@H]1O [AraA, Adenine arabinoside]
[7]; [10]
  Kd: > 500 µM

## OC[C@H]1O[C@@H](n2cnc3c(NCc4ccccc4)ncnc32)[C@H](O)[C@@H]1O [BAPR, 6-benzylaminopurine riboside]
[1]
  Specific activity: 5.1±0.6 nmol s^–1 mg^–1
[2]
  Specific activity: 5.3±0.4 nmol s^–1 mg^–1
[3]
  Specific activity: 0.84±0.04 nmol s^–1 mg^–1
[6]
  Km: 12 µM
  activity compared with Ado: 29%
[4]
  Specific activity: 0.89±0.07 nmol s^–1 mg^–1
[5]
  Specific activity: 3.3±0.2 nmol s^–1 mg^–1

## Nc1ccn([C@@H]2O[C@H](CO)[C@@H](O)[C@H]2O)c(=O)n1 [Cytidine]
[7]; [10]
  Kd: 286 ± 10 µM
